Among the data in US4764618A, “Arginine derivatives and pharmaceutically acceptable acid addition salts thereof” (Mitsubishi Chemical Industries Limited, priority 1984, dated 1988) are IC50 values, retold here.

Structures are written as SMILES.

The target in this test is T1, trypsin (Bos taurus, UniProt P00760).
T1 sequence (P00760 24-246): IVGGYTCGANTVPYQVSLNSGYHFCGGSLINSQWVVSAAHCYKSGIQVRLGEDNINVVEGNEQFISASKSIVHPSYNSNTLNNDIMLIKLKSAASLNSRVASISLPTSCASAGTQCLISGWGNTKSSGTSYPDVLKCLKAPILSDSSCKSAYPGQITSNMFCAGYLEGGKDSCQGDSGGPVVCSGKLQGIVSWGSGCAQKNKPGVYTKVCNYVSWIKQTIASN
The test can be described thus: Determination of Trypsin-Inhibiting Activity (chromogenic substrate S-2222). The format is biochemical. The note with it: inhibitor concentration giving 50% of ΔA/min (405 nm) without inhibitor; 33.3 μM S-2222, 0.1 M Tris-HCl pH 8.3, 37° C.; read-out: I50. As for the experimental part:
Trypsin-inhibiting activity of the arginine derivatives of this invention was determined by the method described below.
Determination of Trypsin-Inhibiting Activity
Trypsin activity is determined by measuring the rate of formation of para-nitroaniline from synthesized chromogenic substrate Jz-Ile-Glu(γ-OH and γ-OCH3)-Gly-Arg-pNA (S-2222)(benzoylisoleucylglutamyl(γ-OH:γ-OCH3 =1:1)glycylarginine p-nitroanilide) supplied by Kabi Diagnostica Inc. Three (3) ml of a reaction mixture containing 33.3 μM of S-2222 and 0.1 M Tris-HCl buffer solution (pH 8.3) is placed in a cell for spectrophotometry and the cell is placed in the thermostatic cell holder at 37° C. of a Hitachi 124 spectrophotometer. After the cell is kept at 37° C. for 3 minutes, 10 μl of a solution of trypsin dissolved in 0.001N HCl containing 0.05M CaCl2 is added, and increase in absorbance at 405 nm is continuously measured using a recorder to calculate ΔA/min at an initial portion. Various inhibitors in various concentrations are added and ΔA/min values are respectively measured. Data are plotted with the inhibitor concentration as abscissa and ΔA/min as ordinate. From the resulting graph the inhibitor concentrations which give ΔA/min corresponding to 50% of the ΔA/min value when no inhibitor is added are sought as I50.
For `COc1ccc2ccc(S(=O)(=O)N[C@@H](CCCNC(=N)N)C(=O)N3CCN(c4cccc(Cl)c4)CC3)cc2c1` [compound 17], the IC50 worked out at 0.38 µM. To `CC1CNc2c(cccc2S(=O)(=O)N[C@@H](CCCNC(=N)N)C(=O)N2CCN(c3ccccc3)CC2)C1` (some centres unmarked) [compound 6] belongs 10 µM; to `Cc1ccc(S(=O)(=O)N[C@@H](CCCNC(=N)N)C(=O)N2CCC(c3ccccc3)CC2)cc1` [Run No. 5], 22 µM. As to `N=C(N)NCCC[C@H](NS(=O)(=O)c1ccc2c(c1)CCCC2)C(=O)N1CCC(c2ccccc2)CC1` [compound 35], the IC50 worked out at 6.7 µM. Turning to `COc1ccc2ccc(S(=O)(=O)N[C@@H](CCCNC(=N)N)C(=O)N3CCC(C(=O)Nc4ccccc4)CC3)cc2c1` [compound 33], the IC50 was found to be 3.4 µM.
